From patent publication US10150793B2, “Antagonists of CB1 receptor” (INSERM (Institut National de la Santé et de la Recherche …, priority 2011, dated 2018)

target: CB1 receptor (Mus musculus, UniProt P47746); assay: THC-induced cannabinoid tetrad (body temperature, locomotor activity, catalepsy, analgesia); type: in vivo, mice; parameters: tissue Charles River Laboratories (France) (animals); host or cells: living mice, whole animal; settings: AMG 50 mg/kg ip 30 min before THC
Sequence (P47746 whole entry): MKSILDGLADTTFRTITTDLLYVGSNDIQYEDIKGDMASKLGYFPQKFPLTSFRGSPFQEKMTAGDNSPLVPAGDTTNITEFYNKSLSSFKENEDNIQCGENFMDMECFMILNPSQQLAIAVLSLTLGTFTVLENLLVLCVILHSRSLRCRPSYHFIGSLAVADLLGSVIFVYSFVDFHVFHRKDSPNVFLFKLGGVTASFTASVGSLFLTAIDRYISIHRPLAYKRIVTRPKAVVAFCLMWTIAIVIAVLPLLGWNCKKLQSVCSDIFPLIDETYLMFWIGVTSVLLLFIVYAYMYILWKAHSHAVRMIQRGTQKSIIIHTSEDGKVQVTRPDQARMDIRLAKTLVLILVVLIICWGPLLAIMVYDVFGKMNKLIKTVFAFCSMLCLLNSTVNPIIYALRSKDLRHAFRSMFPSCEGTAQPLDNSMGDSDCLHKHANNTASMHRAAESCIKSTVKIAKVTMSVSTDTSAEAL

| Compound | effect on behavioural effects of THC (tetrad) |
| --- | --- |
| CCC1(c2ccc(N)cc2)CCC(=O)NC1=O (stereo not shown) [AMG, aminoglutethimide, reference compound] | strongly increased all the behavioural effect of THC |

same assay, conditions: mice; THC 10 mg/kg; compounds 6 mg/kg 15-30 min before THC

| Compound | % Inhibition temperature decrease | % increase in motor activity |
| --- | --- | --- |
| CNC(C)[C@H]1CC[C@H]2[C@@H]3CC=C4C[C@@H](O)CC[C@]4(C)[C@H]3CC[C@]12C (stereo partly drawn) [Compound 67, 20-Methylamino-5-pregnen-3β-ol] | 28%, P < 0.05 | −20%, P > 0.35 |

system: CHO cells; assay: Study of metabolism in vitro in CHO cells, steroids in culture medium by GC/MS; settings: CHO cells
Experimental: Plasma, brain and culture medium levels of pregnenolone (5-Pregnen-3β-ol-20-one), allopregnanolone (3α-hydroxy-5α-pregnan-20-one), epiallopregnanolone (3β-hydroxy-5α-pregnan-ol-20-one), testosterone, and 5α dihydrotestosterone were determined by GC/MS according to the of estraction, purification and quantification protocol described previously (George O, et al., Biol Psychiatry. 2010 68: 956-63, Vallee M, et al., Anal Biochem. 2000, 287:153-66).
The CHO-K1 cell line (#CCL-61, ATCC-LGC, USA) derived as a subclone from the parental CHO cell line initiated from a biopsy of an adult Chinese hamster ovary was used. The CHO-K1 cells were seeded on 24-well plates (#353047, BD Biosciences, USA) to the appropriate concentration (25×10^4 cells/well) in fresh, antibiotic-free medium constituted by 90% DMEM-Glutamax; (#31966-21, Life technologies, USA) and 10% Fetal Bovine Serum (#10270-106, Life technologies, USA).
In this example the inventors further analyzed the metabolism of pregnenolone derivatives using an in vitro test in CHO cells. These cells derived from the ovary have all the enzymes needed to metabolize pregnenolone in down stream steroids.

| Compound | metabolism in downstream active steroids (Reduced metabolism / Metabolized) |
| --- | --- |
| CCC1=CC[C@H]2[C@@H]3CC=C4C[C@@H](O)CC[C@]4(C)[C@H]3CC[C@]12C [Compound 6, 5,16-Pregnadien-3β-ol] | Metabolized |
| CC(=O)C1=CCC2C3CC=C4C[C@@H](O)CC[C@]4(C)C3CC[C@]12C (stereo partly drawn) [Compound 7, 5,16-Pregnadien-3β-ol-20-one] | Metabolized |
| C[C@@H](O)[C@H]1CCC2C3CC[C@H]4C[C@@H](O)CC[C@]4(C)C3CC[C@@]21C (stereo partly drawn) [Compound 8, 5α-Pregnan-3β,20α-diol] | Metabolized |
| CC(=O)C1CCC2C3CC[C@H]4C[C@@H](OC(=O)CCC(=O)O)CC[C@]4(C)C3CC[C@]12C (stereo partly drawn) [Compound 10, 5α-Pregnan-3α-ol-20-one hemisuccinate (Allopregnanolone hemisuccinate)] | Metabolized |
| CC(=O)[C@H]1CCC2C3CC[C@H]4C[C@@H](O)CC[C@]4(C)C3CC[C@@]21C (stereo partly drawn) [Compound 11, 5α-Pregnan-3β-ol-20-one (Epiallopregnanolone)] | Metabolized |
| C[C@@H](O)[C@H]1CCC2C3CCC4=C[C@@H](O)CC[C@]4(C)C3CC[C@@]21C (stereo partly drawn) [Compound 13, 4-Pregnen-3β,20β-diol] | Metabolized |
| C[C@@H](O)[C@@]1(O)CCC2C3CCC4=CC(=O)CC[C@]4(C)C3CC[C@@]21C (stereo partly drawn) [Compound 15, 4-Pregnen-17α,20β-diol-3-one] | Metabolized |
| CC(=O)[C@H]1CCC2C3CCC4=C[C@@H](O)CC[C@]4(C)C3CC[C@@]21C (stereo partly drawn) [Compound 17, 4-Pregnen-3β-ol-20-one] | Metabolized |
| C[C@@H](O)[C@H]1CCC2C3CCC4=CC(=O)CC[C@]4(C)C3CC[C@@]21C (stereo partly drawn) [Compound 19, 4-Pregnen-20β-ol-3-one] | Metabolized |
| C[C@@H](O)[C@H]1CCC2C3CC=C4C[C@@H](O)CC[C@]4(C)C3CC[C@@]21C (stereo partly drawn) [Compound 21, 5-Pregnen-3β,20β-diol] | Metabolized |
| CC(=O)[C@]1(O)CCC2C3CC=C4C[C@@H](O)CC[C@]4(C)C3CC[C@@]21C (stereo partly drawn) [Compound 22, 17α-Hydroxypregnenolone] | Metabolized |
| CC(=O)[C@]1(O)CCC2C3CC=C4C[C@@H](OC(=O)CCC(=O)O)CC[C@]4(C)C3CC[C@@]21C (stereo partly drawn) [Compound 23, 17α-Hydroxypregnenolone hemisuccinate] | Metabolized |
| C[C@]12CC[C@H](O)CC1=CCC1C2CC[C@@]2(C)C1CC[C@@H]2C(=O)CO (stereo partly drawn) [Compound 26, 5-Pregnen-3β,21-diol-20-one] | Metabolized |
| CO[C@H]1CC[C@@]2(C)C(=CCC3C2CC[C@@]2(C)C3CC[C@@H]2C(C)=O)C1 (stereo partly drawn) [Compound 33, 3β-Methoxypregnenolone] | Metabolized |
| CCO[C@H]1CC[C@@]2(C)C(=CCC3C2CC[C@@]2(C)C3CC[C@@H]2C(C)=O)C1 (stereo partly drawn) [Compound 34, 3β-Ethoxypregnenolone] | Metabolized |
| CC(=O)[C@H]1CCC2C3CC=C4CCCC[C@]4(C)C3CC[C@@]21C (stereo partly shown) [Compound 37, 3-Dehydroxypregnenolone] | Metabolized |

| Compound | metabolism in downstream active steroids (Reduced metabolism / Metabolized) |
| --- | --- |
| CC(O)C1=CC[C@H]2[C@@H]3CC=C4C[C@@H](O)CC[C@]4(C)[C@H]3CC[C@]12C (stereo partly drawn) [Compound 38, 5,16-Pregnadien-3β,20-diol] | Metabolized |
| CC(=O)[C@@]1(C)CCC2C3CC=C4C[C@@H](OCc5ccccc5)CC[C@]4(C)C3CC[C@@]21C (stereo partly drawn) [Compound 42, 3β-Benzyloxy-17α-methylpregnenolone] | Reduced metabolism |
| C[C@]12CC[C@H](O)CC1=CCC1C2CC[C@]2(C)C(=O)CCC12 (stereo partly drawn) [Compound 50, 5-Androsten-3β-ol-17-one (DHEA), reference compound] | Metabolized |
| C[C@]12CC[C@H]3[C@@H](CCC4=CC(=O)CC[C@@]43C)[C@@H]1CC[C@@H]2C(=O)CO [Compound 52, 4-Pregnen-21-ol-3,20-dione] | Metabolized |
| CC(=O)[C@H]1CC[C@H]2[C@@H]3CC=C4C[C@@H](OS(=O)(=O)[O-])CC[C@]4(C)[C@H]3CC[C@]12C.[Na+] [Compound 53, Pregnenolone sulfate sodium] | Metabolized |
| CC(=O)O[C@H]1CC[C@@]2(C)C(=CCC3C2CC[C@@]2(C)C3CC[C@@H]2C(C)=O)C1 (stereo partly drawn) [Compound 55, 3β-Acetoxypregnenolone] | Metabolized |
| CC(=O)[C@@]1(Cc2ccccc2)CCC2C3CC=C4C[C@@H](OCc5ccccc5)CC[C@]4(C)C3CC[C@@]21C (stereo partly drawn) [Compound 63, 17α-Benzyl-3β-benzyloxypregnenolone] | Reduced metabolism |
| C=CC[C@]1(C(C)=O)CCC2C3CC=C4C[C@@H](O)CC[C@]4(C)C3CC[C@@]21C (stereo partly drawn) [Compound 64, 17α-Allylpregnenolone] | Metabolized |
| CC(=O)C1CCC2C3CC=C4C[C@@H](N)CC[C@]4(C)C3CC[C@]12C (stereo partly drawn) [Compound 66, 3β-Aminopregnenolone] | Metabolized |
| CNC(C)[C@H]1CC[C@H]2[C@@H]3CC=C4C[C@@H](O)CC[C@]4(C)[C@H]3CC[C@]12C (stereo partly drawn) [Compound 67, 20-Methylamino-5-pregnen-3β-ol] | Reduced metabolism |
| CCOC1(C(C)=O)CCC2C3CC=C4C[C@@H](O)CC[C@]4(C)C3CC[C@@]21C (stereo partly shown) [Compound 71, 17-Ethoxypregnenolone] | Metabolized |
| CC(=O)[C@@]1(Cc2ccccc2)CCC2C3CCC4=CC(=O)CC[C@]4(C)C3CC[C@@]21C (stereo partly drawn) [Compound 73, 17α-Benzylprogesterone] | Reduced metabolism |
| CC(=O)[C@@]1(Cc2ccccc2)CCC2C3CC=C4C[C@@H](F)CC[C@]4(C)C3CC[C@@]21C (stereo partly drawn) [Compound 74, 17α-Benzyl-3β-fluoropregnenolone] | Reduced metabolism |
| C[C@]12CCC3C(CC[C@@H]4C[C@@H](O)CC[C@]34C)C1CC[C@@H]2C(=O)CO (stereo partly drawn) [Compound 75, 5α-Pregnan-3α,21-diol-20-one] | Metabolized |
| C[C@]12CCC3C(CC[C@H]4C[C@@H](O)CC[C@]34C)C1CC[C@@H]2C(=O)CO (stereo partly drawn) [Compound 76, 5α-Pregnan 3β,21-diol-20-one] | Metabolized |
